Data set [1] has as its system Mycobacterium smegmatis (mc(2)155, ATCC700084). Kind of data set: broth microdilution MIC assay, Mycobacterium smegmatis. The settings on record: MIC activity class.
For data set [2], the system named is penicillin-, erythromycin- and tetracycline-resistant Streptococcus pneumoniae (ATCC 700677), ARSP. Kind of data set: microbe, parasite or virus in culture. It counts as cell-based. The settings on record: ATCC700677, MIC activity class, read-out: Antibacterial activity ARSP (multi-drug resistant-SP).
The subject of data set [3] is Staphylococcus epidermidis (PCI 1200, ATCC12228). Put plainly: broth microdilution MIC assay, Staphylococcus epidermidis. It is filed as cell-based. The settings on record: ATCC12228, read-out: Antibacterial activity SE (Staphylococcus epidermidis).
The test system of data set [4] is Human hepatocytes (HepaRG cells). Put plainly: human cytotoxicity assay in vitro (CellTiter-Glo), hepatocytes. It is filed as cell-based. The settings on record: cytotoxicity class.
Data set [5] concerns Bacillus subtilis (Marburg strain, ATCC6051). Kind of data set: microbe, parasite or virus in culture. It is filed as cell-based. The following applies: ATCC6051, read-out: Antibacterial activity BS (Bacillus substilis).
In data set [6] the test system is Staphylococcus aureus MSSA (Newman). Put plainly: broth microdilution MIC assay, Staphylococcus aureus MSSA (Newman). It counts as cell-based. The following applies: for MIC: Staphylococcus aureus; for Antibacterial activity Staphylococcus aureus (MSSA): MIC100 class score, broth microdilution.
Data set [7] deals with Staphylococcus aureus MRSA (COL). Kind of data set: broth microdilution MIC assay, Staphylococcus aureus MRSA (COL). The settings on record: for MIC: Staphylococcus aureus, MRSA. It is filed as cell-based.
The subject of data set [8] is Escherichia coli TolC mutant strain ΔtoIC (K12 b3035 TolC; JW5503). It is filed as cell-based. The following applies: MIC activity class.
In data set [9] the test system is vancomycin-resistant Staphylococcus aureus. Put plainly: broth microdilution MIC assay,  MRSA (COL). It counts as cell-based. The following applies: read-out: MIC for the resistant strain.
Where [10] appears, read: 24 h, read-out: Antibacterial activity Staphylococcus aureus (MSSA).
[11] abbreviates: read-out: Antibacterial activity MSSA (Staphylococcus aureus MSSA).
[12] abbreviates: read-out: Antibacterial activity MRSA (Staphylococcus aureus MRSA).
Setting [13] is: MIC100 class score, broth microdilution, 24 h, read-out: Antibacterial activity Staphylococcus aureus (MRSA).

≈ marks a conversion by molar mass, not a printed value. Like-named read-outs stand apart in the source and are kept apart here.

As to `Cc1nc(-c2ccc(-c3cccc(OC(F)(F)F)c3)o2)[nH]c1-c1ccccc1` [Compound 34], in data set [1], the “Antibacterial activity MS (Mycobacterium smegmatis)” value (from here on “Antibacterial activity MS”) is listed as 2 (MIC100 of 11-201 μg/ml). The MIC in data set [2] was < 1 µg/mL; in data set [3], 20 to 50 µg/mL (≈ 52 to 130 µM); in data set [5], 3 to 10 µg/mL (≈ 7.81 to 26 µM); in [6] (setting [10]), 1 to 3 µg/mL (≈ 2.6 to 7.81 µM); in data set [6] (setting [11]), 1 to 3 µg/mL (≈ 2.6 to 7.81 µM); in [7] (setting [12]) it was 1 to 3 µg/mL (≈ 2.6 to 7.81 µM). Further, the MIC in [7] (setting [13]) was in the range of 1 to 3 µg/mL (≈ 2.6 to 7.81 µM). The “cytotoxicity cell line H (hepatocytes)” value in data set [4] stood at 2.
With `Cc1nc(-c2ccc(-c3cccc(OC(F)(F)F)c3)o2)[nH]c1-c1ccc(F)cc1` [Compound 37], in [1], the “Antibacterial activity MS” value is 2 (MIC100 of 11-201 μg/ml). For the same compound, the MIC in data set [2] fell in the range of 2 to 5 µg/mL (≈ 4.97 to 12.4 µM); in data set [3] it was 20 to 50 µg/mL (≈ 49.7 to 124 µM); in data set [5], 3 to 10 µg/mL (≈ 7.46 to 24.9 µM); in data set [6] (setting [11]), 3 to 10 µg/mL (≈ 7.46 to 24.9 µM); in data set [7] (setting [12]), 3 to 10 µg/mL (≈ 7.46 to 24.9 µM). Besides, the “cytotoxicity cell line H (hepatocytes)” value in data set [4] worked out at 3. The “Antibacterial activity Staphylococcus aureus (MSSA)” value in [6] (24 h) is 3 (MIC100 of 3-10 μg/ml).
As for `Cc1[nH]c(-c2ccc(-c3cccc(F)c3C)o2)nc1-c1ccccc1` [Compound 60], the “Antibacterial activity MS” value in data set [1] was 2 (MIC100 of 11-201 μg/ml). Further, the MIC is 2 to 5 µg/mL (≈ 6.02 to 15 µM) in data set [2]; 20 to 50 µg/mL (≈ 60.2 to 150 µM) in data set [3]; 3 to 10 µg/mL (≈ 9.03 to 30.1 µM) in data set [5]; 3 to 10 µg/mL (≈ 9.03 to 30.1 µM) in data set [6] (setting [10]); 3 to 10 µg/mL (≈ 9.03 to 30.1 µM) in data set [6] (setting [11]); 20 to 50 µg/mL (≈ 60.2 to 150 µM) in data set [7] (24 h, read-out: Antibacterial activity Staphylococcus aureus (MRSA)). Also, the MIC in data set [7] (setting [12]) fell in the range of 20 to 50 µg/mL (≈ 60.2 to 150 µM). In addition, the “cytotoxicity cell line H (hepatocytes)” value in [4] is on record as 3.
As to `Cc1ccccc1-c1c[nH]c(-c2ccc(-c3ccccc3OC(F)(F)F)o2)n1` [Compound 66], the “Antibacterial activity MS” value in [1] is listed as 2 (MIC100 of 11-201 μg/ml). In addition, the MIC in data set [2] was 2 to 5 µg/mL (≈ 5.2 to 13 µM); in [3] it was 20 to 50 µg/mL (≈ 52 to 130 µM); in data set [5], 3 to 10 µg/mL (≈ 7.81 to 26 µM); in data set [6] (setting [11]), 3 to 10 µg/mL (≈ 7.81 to 26 µM); in [7] (setting [12]) it was 11 to 201 µg/mL (≈ 28.6 to 523 µM). The “cytotoxicity cell line H (hepatocytes)” value in data set [4] came to 3. In addition, the “Antibacterial activity Staphylococcus aureus (MSSA)” value in data set [6] (24 h) is given as 3 (MIC100 of 3-10 μg/ml). The “Antibacterial activity Staphylococcus aureus (MRSA)” value in data set [7] (MIC100 class score, broth microdilution, 24 h) is given as 2 (MIC100 of 11-201 μg/ml).
Consider `CN(C)Cc1[nH]c(-c2ccc(-c3ccccc3C(F)(F)F)o2)nc1-c1ccccc1` [Compound 70], for which the MIC in [3] lay within 11 to 201 µg/mL (≈ 26.7 to 489 µM); in [5] it was 20 to 50 µg/mL (≈ 48.6 to 122 µM); in [6] (setting [10]) it was 20 to 50 µg/mL (≈ 48.6 to 122 µM); in data set [6] (setting [11]), 20 to 50 µg/mL (≈ 48.6 to 122 µM); in [7] (setting [12]), 20 to 50 µg/mL (≈ 48.6 to 122 µM); in [7] (setting [13]), 20 to 50 µg/mL (≈ 48.6 to 122 µM). The “cytotoxicity cell line H (hepatocytes)” value in data set [4] is recorded as 3. In data set [8], the “Antibacterial activity EC Δ (Escherichia coli ΔtoIC)” value is recorded as 3 (MIC100 of 3-10 μg/ml).
`CN[C@H](CC(C)C)C(=O)N[C@H]1C(=O)N[C@@H](CC(N)=O)C(=O)N[C@H]2C(=O)N[C@H]3C(=O)N[C@H](C(=O)N[C@H](C(=O)O)c4cc(O)cc(O)c4-c4cc3ccc4O)[C@H](O)c3ccc(c(Cl)c3)Oc3cc2cc(c3O[C@@H]2O[C@H](CO)[C@@H](O)[C@H](O)[C@H]2O[C@H]2C[C@](C)(N)[C@H](O)[C@H](C)O2)Oc2ccc(cc2Cl)[C@H]1O` [vancomycin, Vancomycin]: the MIC in [9] stood at 20 µg/mL (≈ 13.8 µM).

(Values after patent US10322110B2, “Imidazole-based antimicrobial agents” (priority 2014, dated 2019).)
